Where “and” joins values, the source holds several entries; their conditions need not be identical. Identical values can stand only once.
Key:
C918 cell line = tested on: C918 cell line; set-up: method as in PMID 24223611; conditions: C918 human uveal melanoma cell line; read-out: IC50 (cell viability); cited from earlier work
[1] = tested on: Drosophila melanogaster transheterozygous larvae; assay: Genotoxicity (single treatment), Drosophila wing spot test (SMART); type: in vivo; set-up: key to Mann-Whitney Test: n.s.: non-significant; conditions: single treatment; for Mann-Whitney Test: vs negative control
Protocol: (§1) The principles and basic procedures for the Drosophila wing spot test have been described by Graf et al., and in previous works of our group. Two strains of flies carrying wing genetic markers on the left arm of chromosome 3: multiple wing […] used. The transheterozygous larvae were obtained by crossing […] (Third Multiple 3), Bd^S(Beaded […]) virgin females. Hybrid eggs derived from crossing optimally fertile flies were collected over an 8 h period. […] Concurrent negative controls with the solvent alone (water) and positive controls with hydrogen peroxide (120 mM) were also run. Anti-genotoxicity tests were carried out by mixing the mutagen (hydrogen peroxide, 120 mM) with the compounds solution. After emergence, adult flies were collected from the treatment vials and stored in 70% ethanol. The wings of the flies were removed under a stereomicroscope using a pair of entomological tweezers, similar number of males and females-wings were mounted in Faure's solution on microscope slides and inspected, under 400× magnification, for the presence of clones of cells. The mutant clones were classified into three types: […] The appearance of twin spots indicated the recombinogenic activity of the chemotherapeutic agent (Figure 1). The frequencies of spots per fly of treated series were compared with its corresponding negative control series (water) to analyze Somatic Mutation and Recombination Test (SMART) data. For maximum power, statistical analyses were done exclusively for the total number of spots recovered. The non-parametric U test of Mann, Whitney and Wilcoxon was used to avoid weak positive and inconclusive results on SMART and to achieve a well-defined statistical diagnosis whether a given treatment should be regarded as genotoxic or not. The inhibition percentages (IP) were calculated using the total spots per wing with the following formula [16, 36]: IP = ((Genotoxine alone - Genotoxine plus active compound)/Genotoxine alone) × 100

SP6.5 cell line = tested on: SP6.5 cell line; set-up: method as in PMID 24223611; conditions: SP6.5 human uveal melanoma cell line; read-out: IC50 (cell viability); cited from earlier work
[2] = tested on: Drosophila melanogaster transheterozygous larvae; assay: Anti-genotoxicity (combined treatment with hydrogen peroxide 120 mM), Drosophila wing spot test (SMART); type: in vivo; set-up: key to Mann-Whitney Test: n.s.: non-significant; conditions: combined treatment with H2O2 120 mM; for Mann-Whitney Test: vs negative control
Protocol: as §1

[3] = tested on: normal ocular cells (uveal melanocytes, retinal pigment epithelial cells, and scleral fibroblasts); set-up: method as in PMID 24223611; conditions: highest level tested 300 μM; cited from earlier work
HL60 cells [4] = assay: Nucleosomal DNA fragmentation assay; type: cell-based, human; conditions: HL60, 5 h, same concentrations as in the cytotoxicity assay, agarose gel
Protocol: The HL60 tumoral cell line was used with the aim of analyse the apoptotic induction. […] A non-treated cells control was included for each experiment. For DNA fragmentation, treated cells were collected, were centrifuged at 4000 rpm for 5 min and washed with PBS. […] The agarose gels were run at 50 V for 90 min in TBE (Tris/Borate/EDTA) buffer and then observed and photographed under UV light. For Annexin V-PI test, Annexin V Apoptosis Detection Kit ([…] Biotech S.L., Cordoba, Spain) was used. Briefly, cells were resuspended in 100 μL of Binding buffer solution 1× and subsequently, 5 μL AnnexinV-FITC (Fluorescein isothiocyanate) and 10 μL propidium iodide were added, and samples were incubated for 10 min at room temperature in darkness, and flow cytometry (Beckman Coulter Inc., Brea, CA, USA) was then used to analyze the rate of apoptosis.

HL60 cells [5] = assay: Cytotoxicity assay, trypan blue exclusion; type: cell-based, human; conditions: HL60, 72 h, trypan blue exclusion, at the tested concentrations
Protocol: Therefore, all the cells that exclude the dye are viable. Non-viable cells stained purple-violet, whereas viable ones remained unstained. Trypan blue was added to cell cultures at a 1:1 ratio, and 20 μL of cell suspension was loaded into a Neubauer chamber. The cells were counted under an inverted microscope at 100× magnification. […] Curves are expressed as survival percentage with respect to controls growing at 72 h. All data represent the average of at least three independent experiments.

CC1=C(/C=C/C(C)=C/C=C/C(C)=C/C=C/C=C(C)/C=C/C=C(C)/C=C/C2=C(C)C[C@@H](O)CC2(C)C)C(C)(C)C[C@H](O)C1 [Zeaxanthin, zeaxanthin]
IC50 (C918 cell line): 28.7 µM | Large Spots (>2 Cells) m = 5 ([1]; 0.0001 μM): 0.00 (0) clones per wing | Small Spots (1–2 Cells) m = 2 ([1]; 0.0001 μM): 0.05 (2) clones per wing | Total Spots m = 2 ([1]; 0.0001 μM): 0.05 (2) clones per wing | Twin Spots m = 5 ([1]; 0.0001 μM): 0.00 (0) clones per wing | Mann-Whitney Test ([1]; 0.0001 μM): n.s. | Large Spots (>2 Cells) m = 5 ([1]; 0.105 μM): 0.03 (1) clones per wing | Small Spots (1–2 Cells) m = 2 ([1]; 0.105 μM): 0.10 (4) clones per wing | Total Spots m = 2 ([1]; 0.105 μM): 0.15 clones per wing and 0.15 (6) clones per wing | Twin Spots m = 5 ([1]; 0.105 μM): 0.03 (1) clones per wing | Mann-Whitney Test ([1]; 0.105 μM): n.s. | IC50 (SP6.5 cell line): 40.8 µM | Large Spots (>2 Cells) m = 5 ([2]; 0.0001 μM): 0.00 (0) clones per wing | Small Spots (1–2 Cells) m = 2 ([2]; 0.0001 μM): 0.03 (1) clones per wing | Total Spots m = 2 ([2]; 0.0001 μM): 0.05 (2) clones per wing | Twin Spots m = 5 ([2]; 0.0001 μM): 0.03 (1) clones per wing | Mann-Whitney Test ([2]; 0.0001 μM): n.s. | Large Spots (>2 Cells) m = 5 ([2]; 0.105 μM): 0.00 (0) clones per wing | Small Spots (1–2 Cells) m = 2 ([2]; 0.105 μM): 0.07 (2) clones per wing | Total Spots m = 2 ([2]; 0.105 μM): 0.07 (2) clones per wing | Twin Spots m = 5 ([2]; 0.105 μM): 0.00 (0) clones per wing | Mann-Whitney Test ([2]; 0.105 μM): n.s. | effect on viability of normal ocular cells [3]: did not affect the viability | internucleosomal DNA fragmentation ladder pattern (HL60 cells [4]): did not show any internucleosomal fragmentation ladder pattern | cytotoxic effect (tumoral viability) (HL60 cells [5]): slight cytotoxic activities

From article PMC5537869, “Role of Zucchini and Its Distinctive Components in the Modulation of Degenerative Processes: Genotoxicity, Anti-Genotoxicity, Cytotoxicity and Apoptotic Effects” (Nutrients, 2017)
